Reference: patent US20230338473A1, “AN[…] TARGETING IL-2, IL-9, AND IL-15 SIGNALING FOR THE TREATMENT OF CYTOK[…] AND CYTOKINE STORM ASSOCIATED DISORDERS” (priority 2020, published 2023)

How the values were obtained:
IL-15 = experiment: PT-18β proliferation assay (WST-1), IL-15; type: cell-based; settings: PT-18β cells, 1 nM cytokine, BNZ-γ as 1:20 or 1:60 dilution of HEK293T supernatant, 2 days
Description: (§1) For each of the six γc-cytokines, indicator cell lines: NK92, a human NK cell line NK92 available by American Type Culture Collection (ATCC) (catalog # CRL-2407), CTLL-2, a murine CD8 T cells line available from ATCC, and PT-18, a murine mast cell line and its subclone PT-18β, is transfected with human IL-2Rβ gene to make the cells responsive to IL-2 and IL-15 (Tagaya et al., 1996, EMBO J. 15:4928-39), and is used to quantitatively determine the γc-cytokine’s growth-promoting activity (See Current protocols in Immunology from Wiley and Sons for a methodological reference).
(§2) Once the appropriate doses of the cytokine that yield the 50% and 95% maximum response from the indicator cell line is determined, various concentrations (ranging from 1 pM to 10 µM) of the purified or synthesized custom derivative peptide is added to each well containing the cytokine and indicator cells. The reduction in light absorbance at 450 nm is used as an indicator of inhibition of cytokine-stimulated cellular proliferation. Typically, the cells are stimulated by the cytokines such that the absorbance of the well containing indicator cell line and the cytokine is between 2.0 and 3.0, which is reduced to a range of 0.1 to 0.5 by the addition of inhibitory peptides. […]
(§3) The growth-responses of the cells were determined 2 days after the introduction of BNZ-γpeptide and the cytokine using the WST-1 assay. […]

[1] = system: pro-inflammatory cytokines IL-6, IFN-γ, TNF-α, and MCP-1; settings: mouse, in vivo
IL-3 = experiment: PT-18β proliferation assay (WST-1), IL-3 negative control; type: cell-based; settings: PT-18β cells, 1 nM cytokine, BNZ-γ as 1:20 or 1:60 dilution of HEK293T supernatant, 2 days
Description: as §1, §2, §3

IL-4 = experiment: PT-18β proliferation assay (WST-1), IL-4; type: cell-based; settings: PT-18β cells, 1 nM cytokine, BNZ-γ as 1:20 or 1:60 dilution of HEK293T supernatant, 2 days
Description: as §1, §2, §3

STAT5 = experiment: IL-15-mediated tyrosine phosphorylation of STAT5 in PT-18β cells (immunoblot); type: cell-based; settings: PT-18β cells stimulated by IL-15, anti-phospho-STAT5 immunoblot
Description: In addition to stimulating cellular proliferation, binding of the γc-cytokines to their receptors causes a diverse array of intracellular events. (Rochman et al., 2009, Nat Rev Immunol 9:480-90; Pesu et al., 2005, Immunol Rev 203:127-42). Immediately after the cytokine binds to its receptor, a tyrosine kinase called Jak3 (Janus-kinase 3) is recruited to the receptor at the plasma membrane. This kinase phosphorylates the tyrosine residues of multiple proteins including the γc-subunit, STAT5 (Signal Transducer and Activator of Transcription 5) and subunits of the PI3 (Phosphatidylinositol 3) kinase. Among these, the phosphorylation of STAT5 has been implicated in many studies as being linked to the proliferation of cells initiated by the γc-cytokine (Hennighausen and Robinson, 2008, Genes Dev 22:711-21). In accordance with these published data, whether or not the BNZ-γ peptide inhibits the tyrosine phosphorylation of STAT5 molecule in PT-18β cells stimulated by IL-15 was examined (results shown in FIG. 4).
PT-18β cells were stimulated by IL-15 in the presence or absence of BNZ-γ peptide. Cytoplasmic proteins were extracted from the cells according to a conventional method (Tagaya et al., 1996, EMBO J 15:4928-39). […]

[2] = system: NSG mice transplanted with huPBMCs and infected with LCMV; settings: mouse, in vivo
IL-9 = experiment: PT-18β proliferation assay (WST-1), IL-9; type: cell-based; settings: PT-18β cells, 1 nM cytokine, BNZ-γ as 1:20 or 1:60 dilution of HEK293T supernatant, 2 days
Description: as §1, §2, §3

IL-2 = experiment: CTLL-2 proliferation assay (3H-thymidine), IL-2; type: cell-based; settings: CTLL-2 cells, 50 pM IL-2, BNZ-γ 0.1, 1, 10 µM, 20 hours, 3H-thymidine (FIG. 3B)
Method: In a similar assay, the murine cell line CTTL2 was used. In this assay the cells were cultured with 0.5 nM of recombinant IL-2 in RPMI 10% fetal Calf Serum. To set up the proliferation assay, cells were washed from the cytokines 3 times. Cells were seeded at 1 × 10(5) cells per well of a 96-well plate with final concentration of 50 pM of IL-2 or IL-15. Various concentration of BNZ-γ peptide (0.1, 1, and 10 µM) was added to each well. Cells were cultured for 20 hours and in the last 4 hours, ^3H-thymidine was added to the plates. Cells were harvested and radioactivity measured to determine cell proliferation levels.
Inhibition of γc-cytokine-induced proliferation of an indicator cell population by antagonist custom derivative peptides is measured by the 3H-thymidine incorporation assay. Briefly, radiolabeled thymidine (1 microCi) is given to 20-50,000 cells undergoing proliferation in the presence of cytokines. The cell-incorporated radioactivity is measured by trapping cell-bound radioactivity to a glass-fiber filter using a conventional harvester machines (Example, Filtermate Universal Harvester from Perkin-Elmer), after which the radioactivity is measured using a b-counter (Example 1450, Trilux microplate scintillation counter).

IL-3, sequence (P01586 27-166): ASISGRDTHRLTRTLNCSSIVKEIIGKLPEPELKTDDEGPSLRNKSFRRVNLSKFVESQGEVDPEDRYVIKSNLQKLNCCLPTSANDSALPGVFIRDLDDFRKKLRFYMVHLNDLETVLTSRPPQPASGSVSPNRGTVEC

Question: For “I-K-E-F-L-Q-R-F-I-H-I-V-Q-S-I-I-N-T-S (IKEFLQRFIHIVQSIINTS) [BNZ-γ]”, which “growth-promoting activity of IL-15” value (IL-15) is on record?
Answer: significantly (p<0.01 Student’s T test) reduced

Question: What about the “pro-inflammatory cytokine plasma levels” value [1] of the same substance?
Answer: drastically reduced

Question: And the “course of IL-6 plasma level over the measurement period” value ([1]; 2 mg/kg)?
Answer: clear incremental decreases

Question: And the “course of TNF-α plasma level over the measurement period” value ([1]; 2 mg/kg)?
Answer: clear incremental decreases

Question: And the “drop in IFN-γ plasma level versus PBS vehicle control” value ([1]; 2 mg/kg)?
Answer: 4.5 fold

Question: What about the “drop in IL-6 plasma level versus PBS vehicle control” value ([1]; 2 mg/kg) of the same substance?
Answer: 6 fold

Question: What about the “drop in MCP-1 plasma level versus PBS vehicle control” value ([1]; 2 mg/kg) of the same substance?
Answer: 7.5 fold

Question: And the “drop in TNF-α plasma level versus PBS vehicle control” value ([1]; 2 mg/kg)?
Answer: 7 fold

Question: And the “growth-promoting activity of IL-3 (a non γc-cytokine)” value (IL-3)?
Answer: not inhibited

Question: What about the “cellular proliferation stimulated by IL-4” value (IL-4) of the same substance?
Answer: not affected

Question: And the “tyrosine phosphorylation of STAT5 induced by IL-15” value (STAT5)?
Answer: markedly reduced

Question: What about the “protection from cytokine storm-induced mortality” value [2] of the same substance?
Answer: 100%

Question: What about the “survival over the 5-week study period” value [2] of the same substance?
Answer: survived the 5-week study period

Question: And the “growth-promoting activity of IL-9” value (IL-9)?
Answer: significantly (p<0.01 Student’s T test) reduced

Question: What about the “IL-2 induced cellular proliferation” value (IL-2) of the same substance?
Answer: suppresses
